Experimental data reported in patent US10174067B2, “Type of cytidine derivative and application thereof” (priority 2014, dated 2019).
Marks after values point to notes of the source that are not given here.

Experiments:
[1] = tested on: ICR mice; assay: in vivo; conditions: female ICR mice; single-dose ip
Outline: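 MTD, the dose without mortality, body-weight loss over 10% from Day 0 or marked adverse signs, was found by stepwise up/down single intraperitoneal dosing of female SPF ICR mice. Vehicle: ethanol:Cremophor EL:saline 5:5:90. Animals weighed daily and clinically checked twice daily for up to 14 days.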

[2] = tested on: HCT-116 colon cancer xenografts; assay: Tumor growth inhibition of HCT-116 colon cancer xenografts in tumor-bearing nude mice (tumor volume, TGI %, RTV, T/C %); type: in vivo, Balb/c Nude mice; conditions: for T/C % (relative tumor proliferation rate): single-dose intraperitoneal, dosage mg/kg: G3, G4, G8 350, G5, G9 325, G6 300, G7 250;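 on T/C % (relative tumor proliferation rate): control C is the vehicle-treated model control group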
Outline: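 Tumors in HCT-116-inoculated nude mice were sized three times weekly by diameter, with volume V=3/4π(D/2)^3. Significance set at P<0.05.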

[3] = Outline: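 Test compounds formulated in ethanol:Cremophor EL:saline (5:5:90), vehicle alone as control, in HCT-116 subcutaneous xenografts in female Balb/c nudes (6/group, start 60–150 mm^3). Weight measured three times weekly, tumour weight at end; unpaired t-test on Mean±SEM data.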
[4] = Day 0, G3-G9 groups, single IP dose, Mean±SEM
[5] = Day 4, G3-G9 groups, single IP dose, Mean±SEM
[6] = Day 6, G3-G9 groups, single IP dose, Mean±SEM
[7] = Day 8, G3-G9 groups, single IP dose, Mean±SEM
[8] = Day 11, G3-G9 groups, single IP dose, Mean±SEM
[9] = Day 13, G3-G9 groups, single IP dose, Mean±SEM
[10] = Day 15, G3-G9 groups, single IP dose, Mean±SEM
[11] = Day 18, G3-G9 groups, single IP dose, Mean±SEM
[12] = Day 20, G3-G9 groups, single IP dose, Mean±SEM
[13] = Day 22, G3-G9 groups, single IP dose, Mean±SEM

O=C(Nc1nc(=O)n([C@@H]2O[C@H](CO)[C@@H](O)C2(F)F)cc1Br)OCc1ccccc1 [Compound G7, 5-Br-4-N-(carboxybenzyl)-2′-deoxy-2′,2′-difluorocytidine]
dose that could be tolerated (maximum tolerated dose, MTD) [1]: 200 mg/kg | Day 0 (RTV) [2, 4]: 1.00 ± 0.00 | Tumor volume, Day 0 [2, 4]: 133.56 ± 10.23 mm^3 | T/C % (relative tumor proliferation rate) ([2]; Day 0): 0.00% | Day 4 (TGI %) ([2]; Day 4, G3-G9 groups, single IP dose): 53.12% | Day 4 (RTV) [2, 5]: 0.92 ± 0.08 | Tumor volume, Day 4 [2, 5]: 124.90 ± 18.89* mm^3 | T/C % (relative tumor proliferation rate) ([2]; Day 4): 48.99% | Day 6 (TGI %) ([2]; Day 6, G3-G9 groups, single IP dose): 78.40% | Day 6 (RTV) [2, 6]: 0.66 ± 0.12 | Tumor volume, Day 6 [2, 6]: 91.30 ± 21.79** mm^3 | T/C % (relative tumor proliferation rate) ([2]; Day 6): 22.02% | Day 8 (TGI %) ([2]; Day 8, G3-G9 groups, single IP dose): 82.62% | Day 8 (RTV) [2, 7]: 0.66 ± 0.12 | Tumor volume, Day 8 [2, 7]: 91.30 ± 21.79*** mm^3 | T/C % (relative tumor proliferation rate) ([2]; Day 8): 17.67% | tumor inhibition effect ([2]; Day 8 to Day 13 after single-dose intraperitoneal administration): good tumor inhibition effect | Day 11 (TGI %) ([2]; Day 11, G3-G9 groups, single IP dose): 81.27% | Day 11 (RTV) [2, 8]: 1.10 ± 0.23 | Tumor volume, Day 11 [2, 8]: 150.60 ± 38.77** mm^3 | T/C % (relative tumor proliferation rate) ([2]; Day 11): 18.54% | Day 13 (TGI %) ([2]; Day 13, G3-G9 groups, single IP dose): 80.80% | Day 13 (RTV) [2, 9]: 1.66 ± 0.10 | Tumor volume, Day 13 [2, 9]: 222.86 ± 25.56** mm^3 | T/C % (relative tumor proliferation rate) ([2]; Day 13): 19.33% | Day 15 (TGI %) ([2]; Day 15, G3-G9 groups, single IP dose): 72.81% | Day 15 (RTV) [2, 10]: 2.91 ± 0.35 | Tumor volume, Day 15 [2, 10]: 384.06 ± 36.79* mm^3 | T/C % (relative tumor proliferation rate) ([2]; Day 15): 27.80% | Day 18 (TGI %) ([2]; Day 18, G3-G9 groups, single IP dose): 65.62% | Day 18 (RTV) [2, 11]: 4.86 ± 0.65 | Tumor volume, Day 18 [2, 11]: 636.39 ± 30.26* mm^3 | T/C % (relative tumor proliferation rate) ([2]; Day 18): 35.32% | Day 20 (TGI %) ([2]; Day 20, G3-G9 groups, single IP dose): 51.28% | Day 20 (RTV) [2, 12]: 7.99 ± 1.70 | Tumor volume, Day 20 [2, 12]: 1032.60 ± 127.82 mm^3 | T/C % (relative tumor proliferation rate) ([2]; Day 20): 50.40% | Day 22 (TGI %) ([2]; Day 22, G3-G9 groups, single IP dose): 44.07% | Day 22 (RTV) [2, 13]: 11.40 ± 2.93 | Tumor volume, Day 22 [2, 13]: 1462.80 ± 246.74 mm^3 | T/C % on Day 22 ([2]; Day 22, G4 350 mg/kg, G5 325 mg/kg, G7 250 mg/kg, single IP): 58.62% | T/C % (relative tumor proliferation rate) ([2]; Day 22): 58.62% | relative tumor volume compared with the model control group ([2]; G4 and G5 Day 4 to Day 18, G7 Day 4 to Day 15 (p<0.05-0.01), G9 only Day 4 (p<0.05)): reduced significantly | maximum value of TGI % ([2]; day of maximum: G3 Day 8, G4 Day 11, G5 Day 11, G9 Day 4, G7 Day 8, single IP): 82.62% | minimum value of T/C % ([2]; day of minimum: G4 Day 13, G5 Day 11, G7 Day 8, single IP): 17.67% | Weight change rate, Day 0 [3, 4]: 0.00 ± 0.00% | Weight of mice, Day 0 [3, 4]: 21.63 ± 1.17 g | weights of animals on Day 4 after administration ([3]; Day 4 (G7: Day 4 and Day 6), p<0.05): significantly reduced | Weight change rate, Day 4 [3, 5]: −12.28 ± 4.78 % | Weight of mice, Day 4 [3, 5]: 18.87 ± 0.09 g | weight loss rate on Day 4 after administration ([3]; Day 4, G4 350 mg/kg, G5 325 mg/kg, G7 250 mg/kg, single IP): 12.28±4.78% | Weight change rate, Day 6 [3, 6]: −4.39 ± 3.60 % | Weight of mice, Day 6 [3, 6]: 20.60 ± 0.32 g | weight loss rate on Day 6 after administration ([3]; Day 6, G7 250 mg/kg, single IP): 4.39±3.6% | Weight change rate, Day 8 [3, 7]: −1.24 ± 2.80% | Weight of mice, Day 8 [3, 7]: 21.30 ± 0.55 g | Weight change rate, Day 11 [3, 8]: 1.86 ± 3.24% | Weight of mice, Day 11 [3, 8]: 21.97 ± 0.59 g | Weight change rate, Day 13 [3, 9]: 5.62 ± 2.15% | Weight of mice, Day 13 [3, 9]: 22.80 ± 0.76 g | Weight change rate, Day 15 [3, 10]: 7.71 ± 1.47% | Weight of mice, Day 15 [3, 10]: 23.27 ± 0.93 g | Weight change rate, Day 18 [3, 11]: 6.51 ± 2.30% | Weight of mice, Day 18 [3, 11]: 23.00 ± 0.90 g | Weight change rate, Day 20 [3, 12]: 5.54 ± 2.07% | Weight of mice, Day 20 [3, 12]: 22.80 ± 1.00 g | Weight change rate, Day 22 [3, 13]: 4.65 ± 2.51% | Weight of mice, Day 22 [3, 13]: 22.60 ± 0.95 g | Day 22 Mortality ([3]; Day 22, single IP dose (mg/kg)): 0% | clinical symptoms ([3]; after single IP dose, compared with model control group): no significant differences in clinical symptoms
